Columns and labels:
[1] = tested on: giant foxtail; assay: Test B pre/postemergence giant foxtail; type: in vivo, Setaria faberii
Summary of the method: (§1)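 Response is a visual 0-to-10 score relative to untreated plants, where 0 means no effect and 10 means complete control, taken twelve to sixteen days after application. Treatments went onto soil at planting and onto foliage of 1- to 4-leaf plants, using a surfactant-containing non-phytotoxic solvent.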

[2] = tested on: velvetleaf; assay: Test B pre/postemergence velvetleaf; type: in vivo, Abutilon theophrasti
Summary of the method: as §1

[3] = tested on: bedstraw; assay: Test B pre/postemergence bedstraw; type: in vivo, Galium aparine; details: Postemergence; for Plant response rating, Bedstraw: scale 0 to 10, 0 is no effect, 10 is complete control; for Bedstraw plant response rating: scale of 0 to 10 where 0 is no effect and 10 is complete control
Summary of the method: as §1

[4] = tested on: purple nutsedge; assay: Test B pre/postemergence purple nutsedge; type: in vivo, Cyperus rotundus
Summary of the method: as §1

[5] = tested on: cocklebur; assay: Test B pre/postemergence cocklebur; type: in vivo, Xanthium strumarium
Summary of the method: as §1

[6] = tested on: duck salad; assay: Test B flood test duck salad; type: in vivo, Heteranthera limosa; details: for Plant response rating, Ducksalad: scale 0 to 10, 0 is no effect, 10 is complete control; for Ducksalad plant response rating: scale of 0 to 10 where 0 is no effect and 10 is complete control
Summary of the method: (§2)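 Flood test on plants grown to the 2-leaf stage; treated plants kept in greenhouse twelve to sixteen days, then visually rated against controls on a 0 (no effect) to 10 (complete control) scale.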

[7] = tested on: soybean; assay: Test B pre/postemergence soybean; type: in vivo, Glycine max
Summary of the method: as §1

[8] = tested on: pigweed; assay: Test B pre/postemergence pigweed; type: in vivo, Amaranthus retroflexus
Summary of the method: as §1

[9] = tested on: crabgrass; assay: Test B pre/postemergence crabgrass; type: in vivo, Digitaria sanguinalis
Summary of the method: as §1

[10] = tested on: smallflower flatsedge; assay: Test B flood test smallflower flatsedge; type: in vivo, Cyperus difformis
Summary of the method: as §2

[11] = tested on: wild oat; assay: Test B pre/postemergence wild oat; type: in vivo, Avena fatua
Summary of the method: as §1

[12] = tested on: wheat; assay: Test B pre/postemergence wheat; type: in vivo, Triticum aestivum
Summary of the method: as §1

[13] = tested on: rape; assay: Test B pre/postemergence rape; type: in vivo, Brassica napus
Summary of the method: as §1

[14] = tested on: morningglory; assay: Test B pre/postemergence morningglory; type: in vivo, Ipomoea hederacea
Summary of the method: as §1

[15] = tested on: corn; assay: Test B pre/postemergence corn; type: in vivo, Zea mays
Summary of the method: as §1

[16] = tested on: rice; assay: Test B flood test rice; type: in vivo, Oryza sativa
Summary of the method: as §2

[17] = Postemergence, Rate 125 g/ha, scale 0 to 10, 0 is no effect, 10 is complete control
[18] = Postemergence, Rate 250 g/ha, scale 0 to 10, 0 is no effect, 10 is complete control
[19] = Postemergence, Rate 500 g/ha, scale of 0 to 10 where 0 is no effect and 10 is complete control
[20] = Preemergence, Rate 62 g/ha, scale 0 to 10 (0 no effect, 10 complete control)
[21] = Preemergence, Rate 125 g/ha, scale of 0 to 10 where 0 is no effect and 10 is complete control
[22] = Preemergence, Rate 250 g/ha, scale 0 to 10, 0 is no effect, 10 is complete control
[23] = Preemergence, Rate 500 g/ha, scale 0 to 10, 0 is no effect, 10 is complete control
[24] = Rate 62 g/ha, Postemergence, scale of 0 to 10 where 0 is no effect and 10 is complete control
[25] = Postemergence section (flood test species), Rate 500 g/ha, scale of 0 to 10 where 0 is no effect and 10 is complete control
[26] = flood test species, listed under Postemergence, Rate 250 g/ha, scale 0 to 10, 0 is no effect, 10 is complete control

Structure (SMILES): CC(C)N(C(=O)n1oc(=O)n(CC2(C)COC2)c1=O)c1ccccc1 [Compound 420]
- Plant response rating, Giant foxtail [1, 17]: 8
- Plant response rating, Giant foxtail [1, 18]: 8
- Giant foxtail plant response rating [1, 19]: 9
- Plant response rating, Giant foxtail [1, 20]: 5
- Plant response rating, Giant foxtail [1, 21]: 9
- Giant foxtail plant response rating [1, 22]: 10
- Giant foxtail plant response rating [1, 23]: 10
- Giant foxtail plant response rating [1, 24]: 7
- Plant response rating, Velvetleaf [2, 18]: 0
- Velvetleaf plant response rating [2, 19]: 0
- Plant response rating, Velvetleaf [2, 20]: 0
- Plant response rating, Velvetleaf [2, 21]: 2
- Velvetleaf plant response rating [2, 22]: 6
- Velvetleaf plant response rating [2, 23]: 7
- Plant response rating, Bedstraw ([3]; Rate 125 g/ha): 0
- Plant response rating, Bedstraw ([3]; Rate 250 g/ha): 3
- Bedstraw plant response rating ([3]; Rate 500 g/ha): 5
- Bedstraw plant response rating ([3]; Rate 62 g/ha): 0
- Plant response rating, Nutsedge [4, 18]: 0
- Nutsedge plant response rating [4, 19]: 0
- Plant response rating, Nutsedge [4, 20]: 0
- Plant response rating, Nutsedge [4, 21]: 0
- Nutsedge plant response rating [4, 22]: 0
- Nutsedge plant response rating [4, 23]: 10
- Plant response rating, Cocklebur [5, 17]: 0
- Plant response rating, Cocklebur [5, 18]: 0
- Cocklebur plant response rating [5, 19]: 0
- Plant response rating, Cocklebur [5, 20]: 0
- Plant response rating, Cocklebur [5, 21]: 0
- Cocklebur plant response rating [5, 22]: 0
- Cocklebur plant response rating [5, 23]: 0
- Cocklebur plant response rating [5, 24]: 0
- Plant response rating, Ducksalad ([6]; Postemergence (flood test), Rate 125 g/ha): 0
- Ducksalad plant response rating ([6]; Postemergence section (flood test species), Rate 500 g/ha): 0
- Ducksalad plant response rating ([6]; Rate 62 g/ha, Postemergence (flood test species)): 0
- Plant response rating, Ducksalad ([6]; flood test species, listed under Postemergence, Rate 250 g/ha): 0
- Plant response rating, Soybean [7, 18]: 3
- Soybean plant response rating [7, 19]: 4
- Plant response rating, Soybean [7, 20]: 0
- Plant response rating, Soybean [7, 21]: 0
- Soybean plant response rating [7, 22]: 0
- Soybean plant response rating [7, 23]: 0
- Plant response rating, Redroot pigweed [8, 18]: 0
- Redroot pigweed plant response rating [8, 19]: 0
- Plant response rating, Redroot pigweed [8, 20]: 0
- Plant response rating, Redroot pigweed [8, 21]: 2
- Redroot pigweed plant response rating [8, 22]: 2
- Redroot pigweed plant response rating [8, 23]: 5
- Plant response rating, Crabgrass [9, 17]: 2
- Plant response rating, Crabgrass [9, 18]: 8
- Crabgrass plant response rating [9, 19]: 8
- Plant response rating, Crabgrass [9, 20]: 7
- Plant response rating, Crabgrass [9, 21]: 9
- Crabgrass plant response rating [9, 22]: 9
- Crabgrass plant response rating [9, 23]: 10
- Crabgrass plant response rating [9, 24]: 2
- S. Flatsedge plant response rating [10, 25]: 0
- Plant response rating, S. Flatsedge [10, 26]: 0
- Wild oats plant response rating [11, 19]: 2
- Plant response rating, Wild oats [11, 20]: 0
- Plant response rating, Wild oats [11, 21]: 2
- Wild oats plant response rating [11, 22]: 2
- Wild oats plant response rating [11, 23]: 5
- Wheat plant response rating [12, 19]: 5
- Plant response rating, Wheat [12, 20]: 0
- Plant response rating, Wheat [12, 21]: 0
- Wheat plant response rating [12, 22]: 2
- Wheat plant response rating [12, 23]: 7
- Plant response rating, Rape [13, 18]: 0
- Rape plant response rating [13, 19]: 0
- Plant response rating, Rape [13, 20]: 0
- Plant response rating, Rape [13, 21]: 0
- Rape plant response rating [13, 22]: 0
- Rape plant response rating [13, 23]: 8
- Plant response rating, Morningglory [14, 18]: 4
- Morningglory plant response rating [14, 19]: 10
- Plant response rating, Morningglory [14, 20]: 0
- Plant response rating, Morningglory [14, 21]: 0
- Morningglory plant response rating [14, 22]: 2
- Morningglory plant response rating [14, 23]: 8
- Plant response rating, Corn [15, 17]: 0
- Plant response rating, Corn [15, 18]: 0
- Corn plant response rating [15, 19]: 0
- Plant response rating, Corn [15, 20]: 0
- Plant response rating, Corn [15, 21]: 0
- Corn plant response rating [15, 22]: 0
- Corn plant response rating [15, 23]: 2
- Corn plant response rating [15, 24]: 0
- Rice plant response rating [16, 25]: 0
- Plant response rating, Rice [16, 26]: 0

Reference: patent publication US6737383B1, “Herbicidal oxadiazolidines” (priority 1999, dated 2004)
